Reference: US20020128311A1, “Halocyanoacetamide antimicrobial compositions” (priority 2000, published 2002)

Legend:
[1] = Stability of DCOIT and DBNPA mixtures in GTA, stored at 40° C., HPLC; type: physicochemical; details: 4% DCOIT, […]% DBNPA
Protocol: […] […] Surfactants were TweenTM 20, TritonTM DF-12 or TritonTM CF-10. These compositions were stored at 40° C. for 6 weeks and the concentrations of active ingredients ([…]) in the compositions were determined by HPLC at the indicated time intervals.

[2] = Freeze/thaw stability of DCOIT/DBNPA/surfactant/GTA compositions, HPLC; type: physicochemical; details: for % DCOIT retained after Freezing and Thawing: thawed at 25° C. 5 hours, three times
Protocol: Samples were prepared to test the freeze/thaw stability of compositions of the present invention. The freeze/thaw test was conducted for compositions of […], surfactant and GTA prepared in Example 4. Samples (20 g each) were stored at -10° C. or -25° C. for 19 hours to be frozen; samples were then stored at 25° C. for 5 hours to be thawed. This sequence was repeated three times. Then the concentrations of active ingredients ([…]) in the compositions were determined by HPLC.

[3] = Solubility in glyceryl triacetate; details: based on total amount of compound and solvent
[4] = Stability of CMIT and DBNPA mixtures in GTA, stored at 50° C., HPLC; type: physicochemical; details: […]% DBNPA, […]% CMIT/MIT mixture
Protocol: Surfactants were TweenTM 20, TritonTM DF-12 or TritonTM CF-10. The compositions were stored at 50° C. for 4 weeks and the concentrations of active ingredients ([…]) in the compositions were determined by HPLC at the indicated time intervals.

Compound: CCCCCCCCn1sc(Cl)c(Cl)c1=O [DCOIT]
- % DCOIT retained ([1]; 5% Triton CF-10, 66% GTA, 4 Weeks): 96.0%
- % DCOIT retained ([1]; 5% Triton CF-10, 66% GTA, 6 Weeks): 95.6%
- % DCOIT retained ([1]; 5% Triton CF-10, 66% GTA, Time 0): 100.0%
- % DCOIT retained ([1]; 5% Triton DF-12, 66% GTA, 4 Weeks): 100.0%
- % DCOIT retained ([1]; 5% Triton DF-12, 66% GTA, 6 Weeks): 98.2%
- % DCOIT retained ([1]; 5% Triton DF-12, 66% GTA, Time 0): 100.0%
- % DCOIT retained ([1]; 5% Tween 20, 66% GTA, 4 Weeks): 94.3%
- % DCOIT retained ([1]; 5% Tween 20, 66% GTA, 6 Weeks): 94.0%
- % DCOIT retained ([1]; 5% Tween 20, 66% GTA, Time 0): 100.0%
- % DCOIT retained after Freezing and Thawing ([2]; Example 4 composition with Triton CF-10, frozen at −10° C. 19 hours): 100.0%
- % DCOIT retained after Freezing and Thawing ([2]; Example 4 composition with Triton CF-10, frozen at −25° C. 19 hours): 100.0%
- % DCOIT retained after Freezing and Thawing ([2]; Example 4 composition with Triton DF-12, frozen at −10° C. 19 hours): 100.0%
- % DCOIT retained after Freezing and Thawing ([2]; Example 4 composition with Triton DF-12, frozen at −25° C. 19 hours): 100.0%
- % DCOIT retained after Freezing and Thawing ([2]; Example 4 composition with Tween 20, frozen at −10° C. 19 hours): 100.0%
- % DCOIT retained after Freezing and Thawing ([2]; Example 4 composition with Tween 20, frozen at −25° C. 19 hours): 100.0%
- physical stability (appearance) during freeze/thaw cycling ([2]; in GTA solutions in the presence of surfactants): clear solution, no precipitation or phase separation observed
- solubility in glyceryl triacetate ([3]; at 5° C.): 8 % by weight
- solubility in glyceryl triacetate ([3]; at 25° C.): 8 % by weight
- solubility in glyceryl triacetate ([3]; at 40° C.): 20 % by weight

Compound: Cn1sc(Cl)cc1=O [CMIT, 5-chloro-2-methyl-3-isothiazolone]
- % CMIT retained ([4]; 5% Triton CF-10, 45% GTA, 0 Time): 100%
- % CMIT retained ([4]; 5% Triton CF-10, 45% GTA, 1 Week): 98%
- % CMIT retained ([4]; 5% Triton CF-10, 45% GTA, 2 Weeks): 96%
- % CMIT retained ([4]; 5% Triton CF-10, 45% GTA, 3 Weeks): 86%
- % CMIT retained ([4]; 5% Triton CF-10, 45% GTA, 4 Weeks): 84%
- % CMIT retained ([4]; 5% Triton DF-12, 45% GTA, 0 Time): 100%
- % CMIT retained ([4]; 5% Triton DF-12, 45% GTA, 1 Week): 100%
- % CMIT retained ([4]; 5% Triton DF-12, 45% GTA, 2 Weeks): 99%
- % CMIT retained ([4]; 5% Triton DF-12, 45% GTA, 3 Weeks): 87%
- % CMIT retained ([4]; 5% Triton DF-12, 45% GTA, 4 Weeks): 85%
- % CMIT retained ([4]; 5% Tween 20, 45% GTA, 0 Time): 100%
- % CMIT retained ([4]; 5% Tween 20, 45% GTA, 1 Week): 100%
- % CMIT retained ([4]; 5% Tween 20, 45% GTA, 2 Weeks): 80%
- % CMIT retained ([4]; 5% Tween 20, 45% GTA, 3 Weeks): 75%
- % CMIT retained ([4]; 5% Tween 20, 45% GTA, 4 Weeks): 74%
- % CMIT retained ([4]; no surfactant, 50% GTA, 0 Time): 100%
- % CMIT retained ([4]; no surfactant, 50% GTA, 1 Week): 102%
- % CMIT retained ([4]; no surfactant, 50% GTA, 2 Weeks): 97%
- % CMIT retained ([4]; no surfactant, 50% GTA, 3 Weeks): 90%
- % CMIT retained ([4]; no surfactant, 50% GTA, 4 Weeks): 88%
